Among the data in patent US20240101576A1, “HETEROCYCLIC INHIBITORS OF EGFR AND/OR HER2, FOR USE IN THE TREATMENT OF CANCER” (Scorpion Therapeutics, Inc., priority 2020, published 2024) are IC50 values, retold here.

Assay type in all cases: cell-based
Test [1] concerns the target T1, EGFR exon 20 NPG Ins D770_N771 (Ba/F3 cells) (Homo sapiens, UniProt P00533, INS770NPG).
T1 construct: expressed in transfected cells; host or cells: Ba/F3 (murine pro-B cells), retroviral transduction, puromycin selection, IL3-independent pool
Put plainly: Inhibitor activity on EGFR-dependent cell growth (CellTiter-Glo, 72 h), Ba/F3 EGFR exon 20 NPG Ins. The conditions noted are these: read-out: BaF3 NPG IC50. From the text:
Example A. Inhibitor Activity on EGFR-Dependent Cell Growth
Cell lines are generated by transducing Ba/F3 cells with retroviruses containing vectors with EGFR WT, EGFR L858R, EGFR exon 19del, EGFR L858R/C797S, EGFR exon 20 NPG Ins D770_N771, EGFR exon 20 ASV Ins V769_D770, EGFR exon 20 SVD Ins D770_N771, or EGFR exon 20 FQEA Ins A763_V764 genes and a puromycin selection marker. Transduced cells are selected with puromycin for 7 days and are then be transferred into culture media without Interleukin 3 (IL3). EGFR WT cells are maintained with supplemental EGF. Surviving cells are confirmed to express EGFR by Western blot and maintained as a pool. The IC50 date were included in Table 6 and Table 7.
1.1 Cells are harvested from flask into cell culture medium and the cell number counted.
1.2 Cells are diluted with culture medium to the desired density and 40 μL of cell suspension is added into each well of 384-well cell culture plate and the seeding density is 800 (FQEA, exon 19del), 600 (WT, NPG, L858R/C797S), or 400 (ASV, SVD, L858R) cells/well.
2 Compound Preparation and Treatment
2.1 Test compounds are dissolved to 10 mM in a DMSO stock solution. 45 μL of stock solution is transferred to a 384 polypropylene plate (pp-plate). Perform 3-fold, 10-point dilution via transferring 15 μL compound into 30 μL DMSO using a TECAN (EVO200) liquid handler.
2.2 Spin plates at room temperature at 1,000 RPM for 1 minute.
2.3 Transfer 120 nL of diluted compound from compound source plate into the cell plate.
2.4 After compound treatment for 72 hours, perform CTG detection for compound treatment plates as described in “Detection” section.
3.1 Plates are removed from incubators and equilibrated at room temperature for 15 minutes.
3.2 Thaw the CellTiter Glo reagents and allow to equilibrate to room temperature before the experiment.
3.3 Add 40 μL of CellTiter-Glo reagent into each well (at 1:1 to culture medium). Then place the plates at room temperature for 30 min followed by reading on EnVision.
4.1 Inhibition activity is calculated following the formula below:
% Inhibition=100×(LumHC−LumSample)/(LumHC−LumLC) • where HC is obtained from cells treated with 0.1% DMSO only; and LC is obtained from culture medium only.
4.2 2. Calculate the IC50 by fitting the Curve using Xlfit (v5.3.1.3), equation 201.
Y=Bottom+(Top−Bottom)/(1+10^((Log IC50−X)*HillSlope))

For another test, the target named is T2, EGFR WT (Ba/F3 cells) (Homo sapiens, UniProt P00533).
T2 construct: expressed in transfected cells; host or cells: Ba/F3 (murine pro-B cells), retroviral transduction, puromycin selection, maintained with EGF
T2 sequence (P00533 25-1210): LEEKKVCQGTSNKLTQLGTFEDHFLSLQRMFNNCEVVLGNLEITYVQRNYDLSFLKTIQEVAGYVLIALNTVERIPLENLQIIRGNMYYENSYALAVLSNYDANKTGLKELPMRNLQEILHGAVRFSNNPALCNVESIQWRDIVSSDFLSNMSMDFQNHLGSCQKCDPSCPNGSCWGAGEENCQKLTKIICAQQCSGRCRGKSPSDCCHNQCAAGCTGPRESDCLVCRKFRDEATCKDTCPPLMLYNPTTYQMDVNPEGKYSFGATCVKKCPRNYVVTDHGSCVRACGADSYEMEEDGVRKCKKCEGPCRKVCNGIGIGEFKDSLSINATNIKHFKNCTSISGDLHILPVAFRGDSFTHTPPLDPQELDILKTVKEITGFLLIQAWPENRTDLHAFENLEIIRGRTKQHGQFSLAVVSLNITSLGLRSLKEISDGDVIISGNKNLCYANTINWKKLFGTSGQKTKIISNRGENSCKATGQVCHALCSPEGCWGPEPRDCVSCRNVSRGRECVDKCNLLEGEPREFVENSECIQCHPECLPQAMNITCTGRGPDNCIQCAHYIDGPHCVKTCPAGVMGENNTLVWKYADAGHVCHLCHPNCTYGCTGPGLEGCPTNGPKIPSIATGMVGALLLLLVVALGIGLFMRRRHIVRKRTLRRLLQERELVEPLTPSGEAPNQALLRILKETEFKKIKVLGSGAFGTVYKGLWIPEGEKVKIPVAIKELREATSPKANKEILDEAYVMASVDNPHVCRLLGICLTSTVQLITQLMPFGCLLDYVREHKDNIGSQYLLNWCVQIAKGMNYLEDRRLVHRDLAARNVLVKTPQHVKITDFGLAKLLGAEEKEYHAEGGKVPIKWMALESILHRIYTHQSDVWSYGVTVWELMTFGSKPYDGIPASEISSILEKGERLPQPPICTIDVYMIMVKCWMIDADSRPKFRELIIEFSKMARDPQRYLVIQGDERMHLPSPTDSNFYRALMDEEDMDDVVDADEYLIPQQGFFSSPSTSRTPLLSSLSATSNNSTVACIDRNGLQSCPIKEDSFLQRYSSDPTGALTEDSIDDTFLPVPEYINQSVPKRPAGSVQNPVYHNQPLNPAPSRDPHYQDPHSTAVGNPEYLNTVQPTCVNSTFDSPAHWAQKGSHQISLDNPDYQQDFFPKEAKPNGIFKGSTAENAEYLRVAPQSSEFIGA
Put plainly: Inhibitor activity on EGFR-dependent cell growth (CellTiter-Glo, 72 h), Ba/F3 EGFR WT. Particulars: read-out: BaF3 WT IC50. An outline of the steps: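 This growth assay used Ba/F3 cells that depend on wild-type EGFR and are kept in EGF without IL3. Compounds were made up as 10 mM DMSO stocks and diluted 3-fold over 10 points. 120 nL went onto 600 cells/well. After 72 hours, 40 μL CellTiter-Glo was added and luminescence read on EnVision after 30 min.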

Test [2] addresses T3, EGFR exon 20 ASV Ins V769_D770 (Ba/F3 cells) (Homo sapiens, UniProt P00533, INS769ASV).
T3 construct: expressed in transfected cells; host or cells: Ba/F3 (murine pro-B cells), retroviral transduction, puromycin selection, IL3-independent pool
Put plainly: Inhibitor activity on EGFR-dependent cell growth (CellTiter-Glo, 72 h), Ba/F3 EGFR exon 20 ASV Ins. The conditions noted are these: read-out: BaF3 ASV IC50. The essentials: (§1)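 IC50s derive from a sigmoidal dose–response fit of CellTiter-Glo signal. The signal was normalised between […]-treated cells and cell-free medium. Ba/F3 mutant-EGFR cells, seeded at 400–800/well depending on the line, had 72 h of exposure to a 10-point, 3-fold compound series.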

Test [3] has as its target T4, EGFR exon 20 SVD Ins D770_N771 (Ba/F3 cells) (Homo sapiens, UniProt P00533, INS770SVD).
T4 construct: expressed in transfected cells; host or cells: Ba/F3 (murine pro-B cells), retroviral transduction, puromycin selection, IL3-independent pool
The test can be described thus: Inhibitor activity on EGFR-dependent cell growth (CellTiter-Glo, 72 h), Ba/F3 EGFR exon 20 SVD Ins. Particulars: read-out: BaF3 SVD IC50. An outline of the steps:
as §1

Test [4] addresses T5, EGFR exon 20 FQEA Ins A763_V764 (Ba/F3 cells) (Homo sapiens, UniProt P00533, INS763FQEA).
T5 construct: expressed in transfected cells; host or cells: Ba/F3 (murine pro-B cells), retroviral transduction, puromycin selection, IL3-independent pool
Put plainly: Inhibitor activity on EGFR-dependent cell growth (CellTiter-Glo, 72 h), Ba/F3 EGFR exon 20 FQEA Ins. Particulars: read-out: BaF3 FQEA IC50. The essentials:
as §1

Each structure is given as a SMILES string.

T3 sequence (P00533 with tags, fused parts or gaps INS769ASV): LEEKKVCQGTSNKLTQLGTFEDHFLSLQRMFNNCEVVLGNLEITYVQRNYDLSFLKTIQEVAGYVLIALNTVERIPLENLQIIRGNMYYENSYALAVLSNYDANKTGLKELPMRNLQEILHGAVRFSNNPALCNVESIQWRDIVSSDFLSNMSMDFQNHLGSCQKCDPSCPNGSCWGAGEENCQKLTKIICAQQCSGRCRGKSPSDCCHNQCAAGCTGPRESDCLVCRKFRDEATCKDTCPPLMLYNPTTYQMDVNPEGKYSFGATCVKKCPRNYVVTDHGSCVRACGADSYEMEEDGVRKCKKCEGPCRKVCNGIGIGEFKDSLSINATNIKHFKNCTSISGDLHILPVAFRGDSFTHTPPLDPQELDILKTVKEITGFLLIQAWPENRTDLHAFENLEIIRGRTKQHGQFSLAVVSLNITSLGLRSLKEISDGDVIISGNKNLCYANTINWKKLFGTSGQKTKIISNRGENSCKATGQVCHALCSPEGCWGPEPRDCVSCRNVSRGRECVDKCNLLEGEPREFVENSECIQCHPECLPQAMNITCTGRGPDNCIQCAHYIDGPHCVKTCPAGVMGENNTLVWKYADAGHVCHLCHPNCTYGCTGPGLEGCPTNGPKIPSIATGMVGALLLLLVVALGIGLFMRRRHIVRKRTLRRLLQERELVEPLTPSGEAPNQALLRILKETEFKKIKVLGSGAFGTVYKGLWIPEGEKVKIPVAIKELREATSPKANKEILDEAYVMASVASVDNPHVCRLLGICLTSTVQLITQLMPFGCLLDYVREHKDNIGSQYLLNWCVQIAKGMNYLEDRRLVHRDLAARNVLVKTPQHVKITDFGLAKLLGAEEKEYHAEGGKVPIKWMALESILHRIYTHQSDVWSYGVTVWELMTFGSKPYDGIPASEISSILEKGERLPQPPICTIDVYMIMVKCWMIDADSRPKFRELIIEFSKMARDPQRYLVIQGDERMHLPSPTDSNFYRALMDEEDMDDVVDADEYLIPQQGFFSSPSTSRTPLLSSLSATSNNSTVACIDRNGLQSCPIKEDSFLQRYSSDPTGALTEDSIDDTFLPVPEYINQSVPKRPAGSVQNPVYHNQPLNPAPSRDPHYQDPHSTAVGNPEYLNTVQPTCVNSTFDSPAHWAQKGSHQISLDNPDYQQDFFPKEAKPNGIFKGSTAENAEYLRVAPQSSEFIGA
T4 sequence (P00533 with tags, fused parts or gaps INS770SVD): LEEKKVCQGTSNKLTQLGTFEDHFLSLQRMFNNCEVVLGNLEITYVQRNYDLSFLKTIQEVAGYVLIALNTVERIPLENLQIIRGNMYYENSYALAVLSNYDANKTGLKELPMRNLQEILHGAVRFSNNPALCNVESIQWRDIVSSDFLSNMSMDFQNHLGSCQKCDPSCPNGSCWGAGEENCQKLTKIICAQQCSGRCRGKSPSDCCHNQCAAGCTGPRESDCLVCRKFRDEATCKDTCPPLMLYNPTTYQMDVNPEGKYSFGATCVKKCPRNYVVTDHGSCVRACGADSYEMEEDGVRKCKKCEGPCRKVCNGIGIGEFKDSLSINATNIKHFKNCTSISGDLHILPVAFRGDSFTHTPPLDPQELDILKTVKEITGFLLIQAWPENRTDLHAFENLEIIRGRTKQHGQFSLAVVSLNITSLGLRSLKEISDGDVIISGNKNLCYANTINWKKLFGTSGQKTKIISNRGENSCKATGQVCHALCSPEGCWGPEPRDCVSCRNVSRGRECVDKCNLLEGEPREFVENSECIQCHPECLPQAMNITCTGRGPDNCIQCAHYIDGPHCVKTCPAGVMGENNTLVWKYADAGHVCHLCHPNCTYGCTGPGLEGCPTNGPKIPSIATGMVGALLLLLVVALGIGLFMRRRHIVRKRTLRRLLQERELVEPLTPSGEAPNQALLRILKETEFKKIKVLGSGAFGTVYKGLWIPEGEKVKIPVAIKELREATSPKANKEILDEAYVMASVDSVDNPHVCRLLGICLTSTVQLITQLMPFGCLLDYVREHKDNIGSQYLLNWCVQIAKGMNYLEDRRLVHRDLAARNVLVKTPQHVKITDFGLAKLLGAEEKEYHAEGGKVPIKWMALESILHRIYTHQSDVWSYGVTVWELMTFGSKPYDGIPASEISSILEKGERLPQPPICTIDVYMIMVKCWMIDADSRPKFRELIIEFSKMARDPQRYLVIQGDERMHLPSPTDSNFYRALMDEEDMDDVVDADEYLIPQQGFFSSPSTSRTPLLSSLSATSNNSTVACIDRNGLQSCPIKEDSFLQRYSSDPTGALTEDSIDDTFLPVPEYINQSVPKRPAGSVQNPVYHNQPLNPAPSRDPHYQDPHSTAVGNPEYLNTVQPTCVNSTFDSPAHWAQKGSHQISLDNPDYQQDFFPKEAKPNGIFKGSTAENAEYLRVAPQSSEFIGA
T5 sequence (P00533 with tags, fused parts or gaps INS763FQEA): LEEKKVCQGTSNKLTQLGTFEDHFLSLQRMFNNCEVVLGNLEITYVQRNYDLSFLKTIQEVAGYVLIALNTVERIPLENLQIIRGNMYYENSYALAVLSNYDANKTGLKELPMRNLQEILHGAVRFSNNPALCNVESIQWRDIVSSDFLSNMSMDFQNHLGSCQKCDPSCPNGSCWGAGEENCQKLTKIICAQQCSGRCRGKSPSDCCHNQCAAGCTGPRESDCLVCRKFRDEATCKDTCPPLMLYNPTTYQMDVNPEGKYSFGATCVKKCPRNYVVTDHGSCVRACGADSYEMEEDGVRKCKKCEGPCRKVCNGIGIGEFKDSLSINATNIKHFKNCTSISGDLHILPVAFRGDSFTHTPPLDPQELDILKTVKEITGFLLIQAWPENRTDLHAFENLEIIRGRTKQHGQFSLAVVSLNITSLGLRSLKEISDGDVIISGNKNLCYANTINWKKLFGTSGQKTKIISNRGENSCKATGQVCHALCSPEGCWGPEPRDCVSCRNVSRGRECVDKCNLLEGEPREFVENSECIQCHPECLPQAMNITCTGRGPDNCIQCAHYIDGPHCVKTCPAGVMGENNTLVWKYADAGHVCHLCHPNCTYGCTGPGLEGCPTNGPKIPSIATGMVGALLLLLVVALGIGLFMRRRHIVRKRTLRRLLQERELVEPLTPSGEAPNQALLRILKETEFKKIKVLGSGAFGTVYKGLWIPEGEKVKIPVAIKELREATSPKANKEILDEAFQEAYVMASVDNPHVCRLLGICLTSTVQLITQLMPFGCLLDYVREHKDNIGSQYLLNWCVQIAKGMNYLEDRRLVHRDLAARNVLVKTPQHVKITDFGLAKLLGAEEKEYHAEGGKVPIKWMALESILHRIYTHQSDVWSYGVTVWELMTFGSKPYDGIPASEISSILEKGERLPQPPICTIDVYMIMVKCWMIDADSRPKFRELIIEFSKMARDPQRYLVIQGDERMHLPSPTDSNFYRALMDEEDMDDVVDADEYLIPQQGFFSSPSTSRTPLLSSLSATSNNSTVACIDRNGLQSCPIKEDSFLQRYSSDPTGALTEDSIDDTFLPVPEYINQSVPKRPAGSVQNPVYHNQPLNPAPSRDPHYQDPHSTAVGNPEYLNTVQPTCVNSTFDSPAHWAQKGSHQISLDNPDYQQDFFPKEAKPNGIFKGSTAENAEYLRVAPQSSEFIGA

In the case of `COC(=O)N1CC2(CNC(=O)c3c2[nH]c(-c2ccncc2F)c3Nc2cccc(Cl)c2OC)C1` [Compound 490, methyl 3′-[(3-chloro-2-methoxyphenyl)amino]-2′-(3-fluoropyridin-4-yl)-4′-oxo-5′,6′-dihydro-1′H-spiro[azetidine-3,7′-pyrrolo[3,2-c]pyridine]-1-carboxylate], the IC50 (in test [1]; at EGFR WT (Ba/F3 cells); in test [2]; in test [3]) was > 1000 nM throughout.

Turning to `CNC(=O)N1CC[C@@]2(CNC(=O)c3c2[nH]c(-c2ccncc2F)c3Nc2cccc(Cl)c2OC)C1` [Compound 499, (3R)-3′-[(3-chloro-2-methoxyphenyl)amino]-2′-(3-fluoropyridin-4-yl)-N-methyl-4′-oxo-5′,6′-dihydro-1′H-spiro[pyrrolidine-3,7′-pyrrolo[3,2-c]pyridine]-1-carboxamide], the IC50 (in test [1]; on EGFR WT (Ba/F3 cells); in test [2]; in test [3]) was > 1000 nM in each case.

As for `COc1ncc2nccc(-c3[nH]c4c(c3Nc3cccc(F)c3OC)C(=O)NC(C(F)(F)F)C4)c2n1` (stereo not drawn) [Compound 595, 3-[(3-fluoro-2-methoxyphenyl)amino]-2-{2-methoxypyrido[3,2-d]pyrimidin-8-yl}-6-(trifluoromethyl)-1H,5H,6H,7H-pyrrolo[3,2-c]pyridin-4-one], the IC50 (in test [1]; on EGFR WT (Ba/F3 cells); in test [2]; in test [3]) was 100 to 1000 nM in each case.

For the molecule `COc1c(Cl)cccc1Nc1c(-c2ccncn2)[nH]c2c1C(=O)NCC2C[C@H]1COCCO1` (single isomer, unassigned) [Compound 574, (7R*)-3-[(3-chloro-2-methoxyphenyl)amino]-7-[(2S)-1,4-dioxan-2-ylmethyl]-2-(pyrimidin-4-yl)-1H,5H,6H,7H-pyrrolo[3,2-c]pyridin-4-one], the IC50 in test [1] is < 100 nM; on EGFR WT (Ba/F3 cells) it was > 1000 nM.

Take `C=CC(=O)N1CCC2(CC1)CNC(=O)c1c2[nH]c(-c2ccncc2F)c1Nc1cccc(Cl)c1CC` [Compound 558, 3′-[(3-chloro-2-ethylphenyl)amino]-2′-(3-fluoropyridin-4-yl)-1-(prop-2-enoyl)-5′,6′-dihydro-1′H-spiro[piperidine-4,7′-pyrrolo[3,2-c]pyridin]-4′-one]: the IC50 (in test [1]; at EGFR WT (Ba/F3 cells); in test [2]; in test [3]) was < 100 nM throughout.

As to `C=CC(=O)N1CCC2(CC1)CNC(=O)c1c2[nH]c(-c2ccncc2F)c1Nc1cccc(F)c1SC` [Compound 560, 3′-{[3-fluoro-2-(methylsulfanyl)phenyl]amino}-2′-(3-fluoropyridin-4-yl)-1-(prop-2-enoyl)-5′,6′-dihydro-1′H-spiro[piperidine-4,7′-pyrrolo[3,2-c]pyridin]-4′-one], the IC50 is < 100 nM in test [1], 100 to 1000 nM on EGFR WT (Ba/F3 cells), < 100 nM in test [2] and < 100 nM in test [3].

Turning to `COc1c(Cl)cccc1Nc1c(-c2ccncc2F)[nH]c2c1C(=O)NCC2C[C@H]1CO[C@H](CN(C)C)CO1` (single isomer, unassigned) [Compound 564, (7R*)-3-[(3-chloro-2-methoxyphenyl)amino]-7-{[(2S,5R)-5-[(dimethylamino)methyl]-1,4-dioxan-2-yl]methyl}-2-(3-fluoropyridin-4-yl)-1H,5H,6H,7H-pyrrolo[3,2-c]pyridin-4-one], the IC50 in test [1] was 100 to 1000 nM; at EGFR WT (Ba/F3 cells) it was > 1000 nM; in test [2], 100 to 1000 nM; in test [3], 100 to 1000 nM.

For `COCCOc1cncnc1-c1[nH]c2c(c1Nc1cccc(F)c1OC)C(=O)NCC2` [Compound 676, 3-[(3-fluoro-2-methoxyphenyl)amino]-2-[5-(2-methoxyethoxy)pyrimidin-4-yl]-1H,5H,6H,7H-pyrrolo[3,2-c]pyridin-4-one], the IC50 (in test [1]; at EGFR WT (Ba/F3 cells)) was > 1000 nM each time.

With `COc1c(Cl)cccc1Nc1c(-c2ccncn2)[nH]c2c1C(=O)NC[C@@H]2C[C@@H]1COCCO1` [Compound 528, (7S)-3-[(3-chloro-2-methoxyphenyl)amino]-7-[(2R)-1,4-dioxan-2-ylmethyl]-2-(pyrimidin-4-yl)-1H,5H,6H,7H-pyrrolo[3,2-c]pyridin-4-one], the 50% inhibitory concentration (IC50) is < 100 nM in test [1] and > 1000 nM on EGFR WT (Ba/F3 cells).

For the molecule `COc1c(Cl)cccc1Nc1c(-c2ccnc(Nc3cc(C)n(C)n3)n2)[nH]c2c1C(=O)NCC2` [compound 513, 3-[(3-chloro-2-methoxyphenyl)amino]-2-{2-[(1,5-dimethylpyrazl-3-yl)amino]pyrimidin-4-yl}-1H,5H,6H,7H-pyrrolo[3,2-c]pyridin-4-one], the IC50 (at EGFR WT (Ba/F3 cells); in test [2]; in test [3]; in test [4]) was < 100 nM throughout.

As for `COc1c(Cl)cccc1Nc1c(-c2ccnc3cnc(OC4CC4)nc23)[nH]c2c1C(=O)NCC2` [Compound 771, 3-[(3-chloro-2-methoxyphenyl)amino]-2-{2-cyclopropoxypyrido[3,2-d]pyrimidin-8-yl}-1H,5H,6H,7H-pyrrolo[3,2-c]pyridin-4-one], the IC50 (on EGFR WT (Ba/F3 cells); in test [2]; in test [3]; in test [4]) was < 100 nM throughout.

`COC[C@H]1CNC(=O)c2c1[nH]c(-c1ccnc3ccc(OC)nc13)c2Nc1cccc(Cl)c1OC` [Compound 764, (7S)-3-[(3-chloro-2-methoxyphenyl)amino]-2-(6-methoxy-1,5-naphthyridin-4-yl)-7-(methoxymethyl)-1H,5H,6H,7H-pyrrolo[3,2-c]pyridin-4-one]: the IC50 (at EGFR WT (Ba/F3 cells); in test [2]; in test [3]; in test [4]) was < 100 nM throughout.

With `COCC[C@H]1CNC(=O)c2c1[nH]c(-c1ccncn1)c2Nc1cccc(F)c1OC` [Compound 447b], the IC50 at EGFR WT (Ba/F3 cells) was > 1000 nM; in test [2] it was 100 to 1000 nM; in test [3] it was 100 to 1000 nM; in test [4], 100 to 1000 nM.

For the molecule `COc1c(Cl)cccc1Nc1c(-c2ccnc3ccc(OC4CC4)nc23)[nH]c2c1C(=O)NCC2` [compound 677, 3-[(3-chloro-2-methoxyphenyl)amino]-2-(6-cyclopropoxy-1,5-naphthyridin-4-yl)-1H,5H,6H,7H-pyrrolo[3,2-c]pyridin-4-one], the IC50 (at EGFR WT (Ba/F3 cells); in test [2]; in test [3]; in test [4]) was < 100 nM each time.

For `COc1c(F)cccc1Nc1c(-c2ccnc3cc(F)cnc23)[nH]c2c1C(=O)NCC2` [Compound 825, 2-(7-fluoro-1,5-naphthyridin-4-yl)-3-[(3-fluoro-2-methoxyphenyl)amino]-1H,5H,6H,7H-pyrrolo[3,2-c]pyridin-4-one], the IC50 at EGFR WT (Ba/F3 cells) is > 1000 nM; in test [2], 100 to 1000 nM; in test [3] it was < 100 nM; in test [4], 100 to 1000 nM.
